# Measured values taken from patent publication US11192859B2, “Quinoline compounds as modulators of RAGE activity and uses thereof” (NEW YORK UNIVERSITY, priority 2016, dated 2021).
# Biological target: ctRAGE (Homo sapiens (Human), UniProt Q15109)
# Assay: Fluorescence binding assay (native tryptophan fluorescence titration)
# Design: key to Fluorescent Binding Assay, Kd (nM): ***: No binding
# Conditions: 10 nM ctRAGE, pH 7.0, 5% DMSO
# Procedure: Native tryptophan fluorescence experiments were conducted using a Horiba Jobin Yvon Fluorolog spectrofluorometer. 1 mM of compound was dissolved in 10 mM phosphate buffer [pH 7.0] and 50% DMSO. ctRAGE was bacterially expressed and purified as described^1. 10 nM ctRAGE solution was individually titrated from 0.1 nM-100 μM with the compounds in 100 μL of 10 mM phosphate buffer [pH 7.0] and 5% DMSO. The excitation and emission wavelengths were 280 nm and 352 nm, respectively. Dissociation constants, Kd, were estimated from the changes in peak fluorescence intensities as a function of the free compound concentration by using Prism 5 software (GraphPad). Data were fit to the equation, (F−F0)/Fmax=[compound]/(Kd+[compound]) where F is the fluorescence intensity at a given compound concentration, F0 is the fluorescence intensity of the blank, and Fmax is the maximum fluorescence intensity.
# Sequence of ctRAGE (Q15109 364-404): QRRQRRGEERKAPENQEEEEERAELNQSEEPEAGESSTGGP
row,SMILES,"Fluorescent Binding Assay, Kd (nM)"
1,"COc1cc(-c2cc(CN3CCOCC3)c3ccccc3n2)ccc1NC(C)=O [Compound 216, N-(2-methoxy-4-(4-(morpholinomethyl)quinolin-2-yl)phenyl)acetamide]",***
2,"CC(=O)Nc1ccc(-c2cc(CN3CCOCC3)c3ccccc3n2)cc1O [Compound 217, N-(2-hydroxy-4-(4-(morpholinomethyl)quinolin-2-yl)phenyl)acetamide]",***
3,"CC(=O)Nc1ccc(-c2cc(CN3CCOCC3)c3ccc(C(N)=O)cc3n2)cc1 [Compound 230, 2-(4-acetamidophenyl)-4-(morpholinomethyl)quinoline-7-carboxamide]",***
4,"CC(=O)Nc1ccc(-c2cc(CN(C)CCO)c3ccccc3n2)cc1 [Compound 232, N-(4-(4-(((2-hydroxyethyl)(methyl)amino)methyl)quinolin-2-yl)phenyl)acetamide]",***
5,"CCCCNCc1cc(-c2ccc(NC(C)=O)cc2)nc2ccccc12 [Compound 237, N-(4-(4-((butylamino)methyl)quinolin-2-yl)phenyl)acetamide]",***

# Same assay, conditions: 10 nM ctRAGE, pH 7.0, 5% DMSO; read-out: Fluorescent Binding Assay, Kd
row,SMILES,Kd
1,"CC(=O)Nc1ccc(-c2cc(CN3CCOCC3)c3ccccc3n2)cc1F [Compound 214, N-(2-fluoro-4-(4-(morpholinomethyl)quinolin-2-yl)phenyl)acetamide]",34 nM
2,"CC(=O)Nc1ccc(-c2cc(CN3CCOCC3)c3ccccc3n2)cc1Cl [Compound 215, N-(2-chloro-4-(4-(morpholinomethyl)quinolin-2-yl)phenyl)acetamide]",27 nM
3,"CC(=O)Nc1ccc(-c2cc(CN3CCOCC3)c3ccccc3n2)cc1C#N [Compound 218, N-(2-cyano-4-(4-(morpholinomethyl)quinolin-2-yl)phenyl)acetamide]",80 nM
4,"O=C(CO)Nc1ccc(-c2cc(CN3CCOCC3)c3ccccc3n2)cc1 [Compound 219, 2-hydroxy-N-(4-(4-(morpholinomethyl)quinolin-2-yl)phenyl)acetamide]",89 nM
5,"COCC(=O)Nc1ccc(-c2cc(CN3CCOCC3)c3ccccc3n2)cc1 [Compound 220, 2-methoxy-N-(4-(4-(morpholinomethyl)quinolin-2-yl)phenyl)acetamide]",22 nM
6,"NCC(=O)Nc1ccc(-c2cc(CN3CCOCC3)c3ccccc3n2)cc1 [Compound 221, 2-amino-N-(4-(4-(morpholinomethyl)quinolin-2-yl)phenyl)acetamide]",34 nM
7,"CC(=O)NCC(=O)Nc1ccc(-c2cc(CN3CCOCC3)c3ccccc3n2)cc1 [Compound 222, 2-acetamido-N-(4-(4-(morpholinomethyl)quinolin-2-yl)phenyl)acetamide]",32 nM
8,"CCC(=O)Nc1ccc(-c2cc(CN3CCOCC3)c3ccccc3n2)cc1 [Compound 223, N-(4-(4-(morpholinomethyl)quinolin-2-yl)phenyl)propionamide]",72 nM
9,"CC(C)C(=O)Nc1ccc(-c2cc(CN3CCOCC3)c3ccccc3n2)cc1 [Compound 224, N-(4-(4-(morpholinomethyl)quinolin-2-yl)phenyl)isobutyramide]",32 nM
10,"CC(=O)Nc1ccc(-c2cc(CN3CCOCC3)c3ccc(F)cc3n2)cc1 [Compound 225, N-(4-(7-fluoro-4-(morpholinomethyl)quinolin-2-yl)phenyl)acetamide]",122 nM
11,"CC(=O)Nc1ccc(-c2cc(CN3CCOCC3)c3ccc(Cl)cc3n2)cc1 [Compound 226, N-(4-(7-chloro-4-(morpholinomethyl)quinolin-2-yl)phenyl)acetamide]",25 nM
12,"CC(=O)Nc1ccc(-c2cc(CN3CCOCC3)c3ccc(C)cc3n2)cc1 [Compound 227, N-(4-(7-methyl-4-(morpholinomethyl)quinolin-2-yl)phenyl)acetamide]",10 nM
13,"COc1ccc2c(CN3CCOCC3)cc(-c3ccc(NC(C)=O)cc3)nc2c1 [Compound 228, N-(4-(7-methoxy-4-(morpholinomethyl)quinolin-2-yl)phenyl)acetamide]",122 nM
14,"CC(=O)Nc1ccc(-c2cc(CN3CCOCC3)c3ccc(C#N)cc3n2)cc1 [Compound 229, N-(4-(7-cyano-4-(morpholinomethyl)quinolin-2-yl)phenyl)acetamide]",3 nM
15,"CC(=O)Nc1ccc(-c2cc(CNCCO)c3ccccc3n2)cc1 [Compound 231, N-(4-(4-(((2-hydroxyethyl)amino)methyl)quinolin-2-yl)phenyl)acetamide]",47 nM
16,"COCCN(C)Cc1cc(-c2ccc(NC(C)=O)cc2)nc2ccccc12 [Compound 234, N-(4-(4-(((2-methoxyethyl)(methyl)amino)methyl)quinolin-2-yl)phenyl)acetamide]",12 nM
17,"CCCNCc1cc(-c2ccc(NC(C)=O)cc2)nc2ccccc12 [Compound 235, N-(4-(4-((propylamino)methyl)quinolin-2-yl)phenyl)acetamide]",76 nM
18,"CCCN(C)Cc1cc(-c2ccc(NC(C)=O)cc2)nc2ccccc12 [Compound 236, N-(4-(4-((methyl(propyl)amino)methyl)quinolin-2-yl)phenyl)acetamide]",56 nM
19,"CCCCN(C)Cc1cc(-c2ccc(NC(C)=O)cc2)nc2ccccc12 [Compound 238, N-(4-(4-((butyl(methyl)amino)methyl)quinolin-2-yl)phenyl)acetamide]",16 nM

# System: Murine vascular smooth muscle cells (SMCs)
# Assay: Smooth muscle cell migration assay (wounding assay), RAGE ligand CML-AGE
# Assay type: cell-based
# Design: key to SMC migration Assay, IC50 (nM): ****: No inhibition or bad fit or inhibition out of range
# Conditions: CML-AGE 10 μg/ml, 7 h
# Procedure: FIG. 4 depicts effects of compounds on RAGE ligand-stimulated migration of murine aortic smooth muscle cells (SMCs). Migration of SMCs after incubation with the indicated RAGE inhibitor compounds or the parent molecule (“C12”) quinolone from the Chem-Bridge library was assessed. SMCs were grown to confluence and serum-starved overnight. The following morning, serum free media was removed and compounds were added (1 μM). Immediately following the addition of compounds, the monolayer was wounded using a p200 pipette tip and allowed to incubate for 1.5 h. Following this incubation, compounds were removed and fresh media containing RAGE ligand, CML-AGE (10 μg/ml), was added for 7 h. All images were measured at TO and T7 h and an area ingrowth of effective migrating cells was calculated. Each compound was tested in three independent wells and each well was photographed in 3 separate locations for a total of 9 images used in assessing area ingrowth. Error bars represent SEM. * indicates p<0.05 comparing CML-AGE vs. CML-AGE and compound treatment and # indicates p<0.001 comparing CML-AGE vs. serum free medium (SFM) vehicle. Note that SFM is the vehicle into which the RAGE ligand, CML-AGE, is added for testing the effect of RAGE ligand.
# Murine vascular smooth muscle cells (SMCs) were cultured from the aortas of 10-week old male mice using a modification of the procedure of Travo and Barret^17. SMCs were cultured following an explant protocol in accordance with institutional guidelines. Wild-type murine aortic vascular SMCs were isolated and used between passages 8 to 12. Migration in response to the RAGE ligand CML-AGE (CML, 10 μg/ml) or a general effector, not a RAGE ligand, PDGF-BB, 10 ng/ml (R&D systems, Minneapolis, Minn., USA) was assessed with a wounding assay. Cells were grown to confluence in 12-well plates and starved overnight. The following morning, serum free media was removed and compounds were added. Immediately following the addition of compounds, the monolayer was wounded using a p200 pipette tip and the compounds were allowed to incubate for 1.5 h. Following this incubation, all compounds were removed and fresh media containing RAGE ligand or general effector, PDGF-BB, was added for 7 h. Cells were maintained at 37° C. and 5% CO2. Images were obtained at TO and T7. Each image was measured and an area ingrowth of effective migrating cells was calculated. The SMC migration assay data for representative compounds, Compounds 229 and 247, is depicted in FIGS. 5a and 5b, respectively.
row,SMILES,"SMC migration Assay, IC50 (nM)"
1,"COc1cc(-c2cc(CN3CCOCC3)c3ccccc3n2)ccc1NC(C)=O [Compound 216, N-(2-methoxy-4-(4-(morpholinomethyl)quinolin-2-yl)phenyl)acetamide]",****
2,"CC(=O)Nc1ccc(-c2cc(CN3CCOCC3)c3ccccc3n2)cc1O [Compound 217, N-(2-hydroxy-4-(4-(morpholinomethyl)quinolin-2-yl)phenyl)acetamide]",****
3,"O=C(CO)Nc1ccc(-c2cc(CN3CCOCC3)c3ccccc3n2)cc1 [Compound 219, 2-hydroxy-N-(4-(4-(morpholinomethyl)quinolin-2-yl)phenyl)acetamide]",****
4,"CC(=O)Nc1ccc(-c2cc(CN3CCOCC3)c3ccc(C)cc3n2)cc1 [Compound 227, N-(4-(7-methyl-4-(morpholinomethyl)quinolin-2-yl)phenyl)acetamide]",****
5,"CC(=O)Nc1ccc(-c2cc(CN3CCOCC3)c3ccc(C(N)=O)cc3n2)cc1 [Compound 230, 2-(4-acetamidophenyl)-4-(morpholinomethyl)quinoline-7-carboxamide]",****
6,"CC(=O)Nc1ccc(-c2cc(CN(C)CCO)c3ccccc3n2)cc1 [Compound 232, N-(4-(4-(((2-hydroxyethyl)(methyl)amino)methyl)quinolin-2-yl)phenyl)acetamide]",****
7,"COCCNCc1cc(-c2ccc(NC(C)=O)cc2)nc2ccccc12 [Compound 233, N-(4-(4-(((2-methoxyethyl)amino)methyl)quinolin-2-yl)phenyl)acetamide]",****
8,"CCCCNCc1cc(-c2ccc(NC(C)=O)cc2)nc2ccccc12 [Compound 237, N-(4-(4-((butylamino)methyl)quinolin-2-yl)phenyl)acetamide]",****
9,"CC(=O)Nc1ccc(-c2cc(CN3CCOCC3)c3ccc(C#N)cc3n2)cc1F [Compound 259, N-(4-(7-cyano-4-(morpholinomethyl)quinolin-2-yl)-2-fluorophenyl)acetamide]",****

# Same assay, conditions: Mus musculus; CML-AGE 10 μg/ml, 7 h; read-out: SMC migration Assay, IC50
row,SMILES,IC50
1,"CC(=O)Nc1ccc(-c2cc(CN3CCOCC3)c3ccccc3n2)cc1F [Compound 214, N-(2-fluoro-4-(4-(morpholinomethyl)quinolin-2-yl)phenyl)acetamide]",4 nM
2,"CC(=O)Nc1ccc(-c2cc(CN3CCOCC3)c3ccccc3n2)cc1Cl [Compound 215, N-(2-chloro-4-(4-(morpholinomethyl)quinolin-2-yl)phenyl)acetamide]",460 nM
3,"CC(=O)Nc1ccc(-c2cc(CN3CCOCC3)c3ccccc3n2)cc1C#N [Compound 218, N-(2-cyano-4-(4-(morpholinomethyl)quinolin-2-yl)phenyl)acetamide]",133 nM
4,"COCC(=O)Nc1ccc(-c2cc(CN3CCOCC3)c3ccccc3n2)cc1 [Compound 220, 2-methoxy-N-(4-(4-(morpholinomethyl)quinolin-2-yl)phenyl)acetamide]",300 nM
5,"NCC(=O)Nc1ccc(-c2cc(CN3CCOCC3)c3ccccc3n2)cc1 [Compound 221, 2-amino-N-(4-(4-(morpholinomethyl)quinolin-2-yl)phenyl)acetamide]",5000 nM
6,"CC(=O)NCC(=O)Nc1ccc(-c2cc(CN3CCOCC3)c3ccccc3n2)cc1 [Compound 222, 2-acetamido-N-(4-(4-(morpholinomethyl)quinolin-2-yl)phenyl)acetamide]",3200 nM
7,"CC(C)C(=O)Nc1ccc(-c2cc(CN3CCOCC3)c3ccccc3n2)cc1 [Compound 224, N-(4-(4-(morpholinomethyl)quinolin-2-yl)phenyl)isobutyramide]",99 nM
8,"CC(=O)Nc1ccc(-c2cc(CN3CCOCC3)c3ccc(F)cc3n2)cc1 [Compound 225, N-(4-(7-fluoro-4-(morpholinomethyl)quinolin-2-yl)phenyl)acetamide]",44 nM
9,"CC(=O)Nc1ccc(-c2cc(CN3CCOCC3)c3ccc(Cl)cc3n2)cc1 [Compound 226, N-(4-(7-chloro-4-(morpholinomethyl)quinolin-2-yl)phenyl)acetamide]",3 nM
10,"COc1ccc2c(CN3CCOCC3)cc(-c3ccc(NC(C)=O)cc3)nc2c1 [Compound 228, N-(4-(7-methoxy-4-(morpholinomethyl)quinolin-2-yl)phenyl)acetamide]",10 nM
11,"CC(=O)Nc1ccc(-c2cc(CN3CCOCC3)c3ccc(C#N)cc3n2)cc1 [Compound 229, N-(4-(7-cyano-4-(morpholinomethyl)quinolin-2-yl)phenyl)acetamide]",0.2 nM
12,"CC(=O)Nc1ccc(-c2cc(CNCCO)c3ccccc3n2)cc1 [Compound 231, N-(4-(4-(((2-hydroxyethyl)amino)methyl)quinolin-2-yl)phenyl)acetamide]",18 nM
13,"COCCN(C)Cc1cc(-c2ccc(NC(C)=O)cc2)nc2ccccc12 [Compound 234, N-(4-(4-(((2-methoxyethyl)(methyl)amino)methyl)quinolin-2-yl)phenyl)acetamide]",0.4 nM
14,"CCCNCc1cc(-c2ccc(NC(C)=O)cc2)nc2ccccc12 [Compound 235, N-(4-(4-((propylamino)methyl)quinolin-2-yl)phenyl)acetamide]",17 nM
15,"CCCN(C)Cc1cc(-c2ccc(NC(C)=O)cc2)nc2ccccc12 [Compound 236, N-(4-(4-((methyl(propyl)amino)methyl)quinolin-2-yl)phenyl)acetamide]",0.1 nM
16,"CCCCN(C)Cc1cc(-c2ccc(NC(C)=O)cc2)nc2ccccc12 [Compound 238, N-(4-(4-((butyl(methyl)amino)methyl)quinolin-2-yl)phenyl)acetamide]",0.08 nM
17,"COc1ccc2c(CN3CCOCC3)cc(-c3ccc(NC(C)=O)c(Cl)c3)nc2c1 [Compound 257, N-(2-chloro-4-(7-methoxy-4-(morpholinomethyl)quinolin-2-yl)phenyl)acetamide]",1500 nM
18,"COc1ccc2c(CN3CCOCC3)cc(-c3ccc(NC(C)=O)c(C#N)c3)nc2c1 [Compound 258, N-(2-cyano-4-(7-methoxy-4-(morpholinomethyl)quinolin-2-yl)phenyl)acetamide]",323 nM
19,"CC(=O)Nc1ccc(-c2cc(CN3CCOCC3)c3ccc(C#N)cc3n2)cc1Cl [Compound 260, N-(2-chloro-4-(7-cyano-4-(morpholinomethyl)quinolin-2-yl)phenyl)acetamide]",14 nM
20,"CC(=O)Nc1ccc(-c2cc(CN3CCOCC3)c3ccc(C#N)cc3n2)cc1C#N [Compound 261, N-(2-cyano-4-(7-cyano-4-(morpholinomethyl)quinolin-2-yl)phenyl)acetamide]",1400 nM
21,"CCOc1ccc2c(CN3CCOCC3)cc(-c3ccc(NC(C)=O)c(F)c3)nc2c1 [Compound 262, N-(4-(7-ethoxy-4-(morpholinomethyl)quinolin-2-yl)-2-fluorophenyl)acetamide]",2900 nM
